Laboratory results: patent publication US11613587B2, “Combination therapy of T cell activating bispecific antigen binding molecules and PD-1 axis binding antagonists” (Hoffmann-La Roche Inc., priority 2014, dated 2023)

Legend:
[1] = test system: T cells in FolR1 positive tumor digests or malignant effusions; test: Ex vivo treatment of tumor samples with FolR1-TCB (T cell activation and effector function); assay type: cell-based, human; conditions: 24 h
Experimental: FolR1 positive tumor digests or malignant effusions were thawed, washed and plated in 96-well flat bottom cell culture plates (BD Falcon) with a density of […] cells/200 μl/well in complete medium (DMEM+Sodium Pyruvate (1 mM)+MEM non essential AA (1×)+L-Glutamin (2 mM)+Penicillin/Streptomycin ([…])+2-Mercaptoethanol (50 nM)+Ciproxin (1 mg/ml)+10% human Serum). The samples were cultured in the presence or absence of FolR1-TCB or DP47 TCB at a concentration of 2 nM for 24 h. Activation of CD8^+ and CD4^+ T cells (CD45^+CD3^+) upon FolR1-TCB treatment was determined by multicolor flow cytometry by measuring the expression of the cell surface markers CD25, CD69, CD137, ICOS, PD-1 and Tim-3. Furthermore the expression of granzyme B and IFN-γ was determined by intracellular staining. […]
We analyzed whether the expression of inhibitory receptors could be correlated with a diminished T-cell functionality upon FolR1-TCB treatment.

[2] = molecular target: T1, FolR1 on Hela, Skov3, OVCAR5, HT29, MKN45 tumor cells (Homo sapiens, UniProt P15328); test: Binding to tumor cells with different FolR1 expression levels (flow cytometry)
T1 construct: endogenous in cells; host or cells: tumour cell line panel (HeLa, SKOV3, OVCAR5, HT-29; MKN-45 as FolR1-negative line)
Source text: FIGS. 6A-E depict graphs summarizing binding of FolR1 IgGs to cells with different FolR1 expression levels. […] DP47 IgG was included as isotype control and MKN-45 were included as FolR1 negative cell line.
The FolR1 TCBs were used to determine T cell mediated killing of tumor cells expressing FoLR1. A panel of potential target cell lines was used to determine FoLR1 binding sites by Qifikit analysis.
The used panel of tumor cells contains FolR1 high, intermediate and low expressing tumor cells and a FolR1 negative cell line.
The amount of bound construct is proportional to the FolR1 expression level and there is still good binding of the constructs to the FolR1 low cell line HT-29 detectable. […] DP47 TCB is an untargeted TCB and was prepared as described in WO2014/131712.

[3] = test system: PBMCs co-cultured with Skov3; test: Activation of T-cells from healthy donors by FolR1-TCB (PBMC co-cultured with Skov3); assay type: cell-based, human; conditions: 0.6 pM to 2 nM, 24 h
Experimental: FIGS. 40A-C show activation of CD8^+ T-cells upon exposure to increasing concentrations of FolR1-TCB. PBMCs were co-cultured with Skov3 cells for 24 h in the presence or absence of FolR1-TCB or the unspecific control DP-47-TCB. […] Shaded histogram: isotype control; open histogram: anti-FolR1-antibody. FIG. 40B: The expression of the activation markers CD25, CD137, and ICOS on CD8^+ T-cells was determined by flow cytometry. FIG. 40C: IFN-v.
To assess the effect of FolR1-TCB on T-cell activation peripheral blood mononuclear cells (PBMCs) from healthy donors were co-cultured with the FolR1^+ ovarian cancer cell line Skov3 (FIG. 40A). […] In addition, T-cells secreted IL-2, IFN-γ, and TNF.

SKOV3 cells [4] = test: T cell mediated killing (LDH release); assay type: cell-based, human; conditions: SKOV3 and HT-29 cells, used concentrations
Experimental: FIGS. 7A-L depict graphs summarizing T cell mediated killing of HT-29 and SKOV3 cells. FolR1 TCBs were used to test T cell mediated killing of HT-29 and SKOV3 tumor cells and upregulation of activation marker on T cells upon killing. […] DP47 TCB was included as negative control. After 48 h incubation upregulation of the activation marker CD25 and CD69 on CD8 T cells and CD4 T cells upon killing of SKOV3 (FIGS. 7E-H) or HT-29 (FIG. 7I-L) tumor cells was assessed by flow cytometry.
Overall killing of SKOV3 cells was higher compared to HT-29 which reflects the higher expression levels of FolR1 on SKOV3 cells (FIGS. 7A-D). In line with this, a strong upregulation of the activation marker CD25 and CD69 on CD4^+ T cells and CD8^+ T cells was detected. Activation of T cells was very similar in the presence of SKOV3 cells and HT-29 cells.

SKOV3 cells [5] = test: Killing assay with tumor samples and CFSE-labelled Skov3 cells; assay type: cell-based
Experimental: To determine the FolR1-TCB induced tumor cell killing, 3×10^4 CFSE-labelled Skov3 cells were cocultured with tumor samples in the presence or absence of FolR1-TCB at a concentration of 2 nM for 24 h in 96-well flat bottom cell culture plates. The E:T ratio (E: effector CD45+CD3+ cells; T: target FolR1^+ cells from tumor and added Skov3 cells) was adjusted to 1:1 in each well and the cell number of the added tumor samples was calculated for each sample according to prior characterization by flow cytometry. Cell death of Skov3 cells was determined by flow cytometry by measuring activated caspase 3 and the live/dead marker Live/Dead-near-IR. The assay was performed in triplicates. The FolR1-TCB mediated killing was calculated according to the following equation: % of specific killing=100−[(% of Skov3 live cells in FolR1-TCB treated sample/% of Skov3 live cells in untreated sample)×100].
To compare the FolR1-TCB-induced killing capacity of T-cells between tumor samples, and to exclude additional factors suppressing T-cell functionality, such as expression of PD-L1 on the tumor cells, we exogenously added CFSE-labeled FolR1^+ Skov3 cells to the tumor digests and adjusted the E:T ratio to 1:1, essentially as described above. We then measured the FolR1-TCB-induced killing of CFSE-labeled Skov3 cells, which allowed us to also include FolR1^− tumor samples into the analysis. […]

[6] = test system: CD4+ and CD8+ T cells in whole blood; test: T cell activation in whole blood; assay type: cell-based, human; conditions: 24 h after addition
Source text: FIGS. 9A-D depict graphs summarizing activation marker upregulation in whole blood.
DP47 TCB was included as negative control.

[7] = test system: T cells in EpCAM positive tumor digests or malignant effusions; test: Ex vivo treatment of tumor samples with catumaxomab; assay type: cell-based, human; conditions: 4 NSCLC tumor digests, 10 ng/ml, 24 h
Experimental: The trifunctional TCB catumaxomab (Removab®) was obtained from Fresenius. The experimental conditions were similar as indicated above for FolR1-TCB. Briefly, EpCAM positive tumor digests or malignant effusions were cultured in the presence or absence of catumaxomab at a concentration of 10 ng/ml for 24 h. Analysis of CD8^+ and CD4^+ positive T cells (CD45+CD3+) was performed as described above.
To determine to which extent catumaxomab induces T cell activation and to confirm the findings described above using a second, independent T cell bispecific molecule, 4 tumor digests from patients with NSCLC were exposed to catumaxomab, a trifunctional bispecific antibody recognizing CD3 on T cells and EpCAM on tumor cells. Then, T cells were characterized by flow cytometry for expression of activation markers and T cell effector functions (FIG. 17A-D). […] Accordingly, the baseline expression of inhibitory receptors differed between the patients (FIG. 17E-H).

[8] = test system: T cells in FolR1+ tumor digests or malignant effusions; test: FolR1-TCB with PD-1 blockade in tumor digests or malignant effusions (cytokine secretion); assay type: cell-based, human; conditions: combined with FolR1-TCB
Experimental: FIG. 38A-D: FolR1^+ tumor digests or malignant effusions were cultured for 24 h with FolR1-TCB in the presence or absence of a PD-1 blocking antibody. […] The increase in cytokine secretion upon combined FolR1-TCB and anti-PD-1 treatment compared with FolR1-TCB alone was determined in PD-1^hi scarce and abundant tumors. FIG. 38E: Tumor digests or malignant effusions were co-cultured with exogenously added fluorescently labeled Skov3 cells at an E:T ratio of 1:1 for 24 h in the presence or absence of a PD-1 blocking antibody and FolR1-TCB. The increase in specific killing by the anti-PD-1 antibody was compared in PD-1^hi scarce and abundant tumors. p-values were calculated using the unpaired Mann-Whitney test.
As the level of PD-1 expression on TILs correlates with the efficacy of FolR1-TCB, we analyzed whether blockade of the PD-1/PD-L1 axis in combination with FolR1-TCB treatment might be able to restore T-cell function.

T cells in tumor digests = test: Polyclonal stimulation with anti-CD3/CD28 antibodies and PD-1 blockade; assay type: cell-based, human; conditions: 10 μg/ml, 24 hrs

T1 sequence (P15328 25-257): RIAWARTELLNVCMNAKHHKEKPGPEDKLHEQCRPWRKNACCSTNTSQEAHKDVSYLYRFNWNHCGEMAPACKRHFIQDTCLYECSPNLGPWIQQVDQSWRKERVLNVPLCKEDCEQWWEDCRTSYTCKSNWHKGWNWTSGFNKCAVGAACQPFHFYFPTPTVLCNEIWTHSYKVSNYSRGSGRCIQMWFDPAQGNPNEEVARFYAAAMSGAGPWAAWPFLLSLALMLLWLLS

For “DP47 TCB: untargeted TCB, negative control, prepared as described in WO2014/131712”, the T cell activation [1] was “did not induce any T cell activation”, the “binding to panel of tumor cell lines” value [2] was “no binding” and the “T-cell activation (CD25, CD137, ICOS)” value [3] was “did not induce any T-cell activation”. The “induction of tumor cell killing” value (SKOV3 cells [4]) was “does not induce any killing” and the tumor cell killing (SKOV3 cells [5]; E:T 1:1, 24 h) was “did not induce any tumor cell killing”.

For “Mov19 TCB: reference FolR1/CD3 T-cell bispecific with Mov19 binder [reference compound]”, the “upregulation of CD25 and CD69 on CD4+ and CD8+ T cells in whole blood” value [6] was “No activation of T cells”.

For catumaxomab, the “catumaxomab induced T cell activation” value [7] was “striking heterogeneity”.

nivolumab: PD-1 blocking antibody was tested, and the “secretion of IFN-γ, TNF, IL-2 and perforin upon PD-1 blockade” value ([8]; PD-1hi abundant tumors) was “failed to elicit any response”, the “secretion of IFN-γ, TNF, IL-2 and perforin upon PD-1 blockade” value ([8]; PD-1hi scarce tumors) was “could be increased only in some of the PD-hi scarce tumors” and the “cytotoxic tumor cell killing upon additional PD-1 blockade” value (SKOV3 cells [5]; combined with FolR1-TCB, PD-1hi scarce and abundant tumors) was “could neither be improved”. The “restoration of T cell effector function (IL-2, IFN-γ, TNF-α)” value (T cells in tumor digests) was “only in some patients”.
